Activity calls are given as the source filed them. Peptide text beside a SMILES is read from it. * marks the point of attachment. Cbz = O=C(OCc1ccccc1)*
Columns and labels:
Cytochrome P450 3A4 = Cytochrome P450 3A4 (Homo sapiens, UniProt P08684);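 further: CYP3A4 tested as one member of a cytochrome P450 panel screen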
Cytochrome P450 1A2 = biological target: T1, Cytochrome P450 1A2 (Homo sapiens, UniProt P05177);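 further: PubChem cytochrome P450 panel assay, CYP1A2 panel member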
T1 sequence (P05177 whole entry): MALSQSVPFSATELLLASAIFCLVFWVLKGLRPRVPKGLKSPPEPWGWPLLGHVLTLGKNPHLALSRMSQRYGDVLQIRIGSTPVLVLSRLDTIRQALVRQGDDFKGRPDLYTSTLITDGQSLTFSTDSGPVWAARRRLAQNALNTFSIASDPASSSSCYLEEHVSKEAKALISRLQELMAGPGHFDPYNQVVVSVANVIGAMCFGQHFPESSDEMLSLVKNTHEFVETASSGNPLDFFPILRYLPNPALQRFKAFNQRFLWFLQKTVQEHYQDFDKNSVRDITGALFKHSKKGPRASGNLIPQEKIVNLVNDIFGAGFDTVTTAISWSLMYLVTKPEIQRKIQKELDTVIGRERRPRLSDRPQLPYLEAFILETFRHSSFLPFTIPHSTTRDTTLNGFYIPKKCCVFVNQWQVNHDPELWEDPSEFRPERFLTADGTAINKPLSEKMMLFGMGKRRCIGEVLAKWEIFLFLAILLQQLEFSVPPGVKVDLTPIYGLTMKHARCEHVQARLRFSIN

Cytochrome P450 2C9 = Cytochrome P450 2C9 (Homo sapiens, UniProt P11712)
Cytochrome P450 2C19 = Cytochrome P450 2C19 (Homo sapiens, UniProt P33261); test: Cytochrome panel assay with activity outcomes. Panel member name: p450-cyp2c19 Compounds with AC50 equal or less than 10 uM are considered active; assay type: functional; conditions: read-out: AC50
Protein RecA = biological target: T2, Protein RecA (Mycobacterium tuberculosis, UniProt P9WHJ3); test: Fluorescence Cell-Free Homogeneous Dose Retest to Identify Inhibitors of RecA-Intein Splicing Activity. [Related pubchem assays (depositor defined):AID2097, AID2223, AID489010, AID492950]; assay type: functional
T2 sequence (P9WHJ3 whole entry): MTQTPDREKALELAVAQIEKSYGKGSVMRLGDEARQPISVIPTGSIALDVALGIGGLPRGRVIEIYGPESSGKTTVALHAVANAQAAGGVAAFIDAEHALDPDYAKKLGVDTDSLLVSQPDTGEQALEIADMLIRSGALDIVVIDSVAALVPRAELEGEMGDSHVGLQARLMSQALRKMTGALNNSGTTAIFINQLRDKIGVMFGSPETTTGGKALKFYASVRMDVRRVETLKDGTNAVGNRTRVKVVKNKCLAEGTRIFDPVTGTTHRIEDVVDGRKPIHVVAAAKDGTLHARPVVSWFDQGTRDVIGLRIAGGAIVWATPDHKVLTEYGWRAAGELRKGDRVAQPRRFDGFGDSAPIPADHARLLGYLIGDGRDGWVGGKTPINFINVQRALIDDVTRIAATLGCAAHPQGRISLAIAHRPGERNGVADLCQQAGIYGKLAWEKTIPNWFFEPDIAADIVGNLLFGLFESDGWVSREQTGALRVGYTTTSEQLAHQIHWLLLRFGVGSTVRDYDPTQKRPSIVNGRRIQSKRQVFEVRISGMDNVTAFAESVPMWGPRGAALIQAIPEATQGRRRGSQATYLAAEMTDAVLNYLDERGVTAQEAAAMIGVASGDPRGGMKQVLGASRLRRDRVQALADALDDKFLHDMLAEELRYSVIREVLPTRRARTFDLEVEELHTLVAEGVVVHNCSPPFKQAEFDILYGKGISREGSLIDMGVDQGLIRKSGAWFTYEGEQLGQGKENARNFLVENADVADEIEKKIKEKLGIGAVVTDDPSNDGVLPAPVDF

[1] = biological target: T3, Replicative DNA helicase DnaB (Mycobacterium tuberculosis, UniProt P9WMR3); test: DnaB intein splicing inhibitors, dose response, biochemical, cell-free fluorescence (AID 449749); assay type: functional
T3 sequence (P9WMR3 whole entry): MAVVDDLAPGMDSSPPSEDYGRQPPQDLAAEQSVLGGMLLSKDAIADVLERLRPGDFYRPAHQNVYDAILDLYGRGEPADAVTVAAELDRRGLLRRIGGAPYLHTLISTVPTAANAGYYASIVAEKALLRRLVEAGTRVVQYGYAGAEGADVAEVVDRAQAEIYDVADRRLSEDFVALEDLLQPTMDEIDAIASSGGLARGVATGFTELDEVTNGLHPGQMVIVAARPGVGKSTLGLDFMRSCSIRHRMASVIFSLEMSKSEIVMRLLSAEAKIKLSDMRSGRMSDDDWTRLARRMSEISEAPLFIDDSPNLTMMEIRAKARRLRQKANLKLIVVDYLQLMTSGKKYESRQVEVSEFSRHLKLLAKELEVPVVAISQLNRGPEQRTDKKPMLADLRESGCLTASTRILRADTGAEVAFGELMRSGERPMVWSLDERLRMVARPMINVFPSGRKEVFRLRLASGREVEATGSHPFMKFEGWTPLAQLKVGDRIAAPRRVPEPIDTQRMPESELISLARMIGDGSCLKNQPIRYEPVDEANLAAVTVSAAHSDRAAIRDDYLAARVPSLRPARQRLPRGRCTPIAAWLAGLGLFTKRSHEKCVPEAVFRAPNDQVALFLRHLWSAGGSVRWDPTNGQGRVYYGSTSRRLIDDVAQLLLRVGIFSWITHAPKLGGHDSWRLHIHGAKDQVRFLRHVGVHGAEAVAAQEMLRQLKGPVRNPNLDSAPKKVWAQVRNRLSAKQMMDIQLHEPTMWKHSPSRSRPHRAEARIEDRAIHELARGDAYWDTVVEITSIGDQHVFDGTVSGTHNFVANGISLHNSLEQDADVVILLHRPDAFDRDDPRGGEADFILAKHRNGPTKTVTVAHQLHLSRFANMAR

Cytochrome P450 2D6 = Cytochrome P450 2D6 (Homo sapiens, UniProt P10635);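 further: CYP2D6 member of a cytochrome P450 panel assay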
[2] = biological target: T4, Polyadenylate-binding protein 1 (Homo sapiens, UniProt P11940); test: PABP1 MLLE–PAM2 interaction inhibitors, dose response, miRNA deadenylation inhibitor project, biochemical, fluorescence polarization, Cy5-PAM2 peptide, secondary (AID 602260); assay type: functional; conditions: read-out: IC50_Mean
[3] = biological target: T4, Polyadenylate-binding protein 1; test: PABP1 MLLE–PAM2 binding inhibitor potency, dose response, biochemical, fluorescence polarization, FITC-PAM2 peptide (AID 602259); assay type: functional; conditions: read-out: IC50_Mean

Cytochrome P450 2C19, sequence (P33261 whole entry): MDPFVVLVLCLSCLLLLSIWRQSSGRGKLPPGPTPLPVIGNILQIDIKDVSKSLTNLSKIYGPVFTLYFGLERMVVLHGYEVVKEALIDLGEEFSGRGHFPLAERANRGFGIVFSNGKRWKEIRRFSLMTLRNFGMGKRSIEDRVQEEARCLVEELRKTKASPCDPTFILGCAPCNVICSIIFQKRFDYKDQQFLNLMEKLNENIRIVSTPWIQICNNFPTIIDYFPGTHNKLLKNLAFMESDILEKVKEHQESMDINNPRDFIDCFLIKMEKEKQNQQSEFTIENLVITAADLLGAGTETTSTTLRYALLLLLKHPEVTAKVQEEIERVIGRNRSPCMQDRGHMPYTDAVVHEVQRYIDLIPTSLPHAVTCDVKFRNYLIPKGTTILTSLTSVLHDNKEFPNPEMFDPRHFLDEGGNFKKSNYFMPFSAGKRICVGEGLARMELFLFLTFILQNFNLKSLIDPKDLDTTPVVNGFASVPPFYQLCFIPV
Cytochrome P450 3A4, sequence (P08684 whole entry): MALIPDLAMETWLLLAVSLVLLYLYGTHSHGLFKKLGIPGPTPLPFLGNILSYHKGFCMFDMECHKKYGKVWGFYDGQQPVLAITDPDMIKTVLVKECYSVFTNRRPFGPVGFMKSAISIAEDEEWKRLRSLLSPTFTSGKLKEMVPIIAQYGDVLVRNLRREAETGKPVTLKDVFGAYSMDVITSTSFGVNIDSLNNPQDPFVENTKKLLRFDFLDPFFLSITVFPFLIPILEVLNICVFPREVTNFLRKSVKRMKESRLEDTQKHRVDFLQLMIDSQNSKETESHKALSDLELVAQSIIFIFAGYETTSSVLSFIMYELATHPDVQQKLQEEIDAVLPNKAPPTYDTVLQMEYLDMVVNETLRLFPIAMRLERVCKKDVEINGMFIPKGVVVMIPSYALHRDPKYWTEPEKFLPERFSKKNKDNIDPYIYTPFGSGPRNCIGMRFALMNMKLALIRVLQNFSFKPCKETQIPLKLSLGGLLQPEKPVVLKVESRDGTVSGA
Cytochrome P450 2C9, sequence (P11712 whole entry): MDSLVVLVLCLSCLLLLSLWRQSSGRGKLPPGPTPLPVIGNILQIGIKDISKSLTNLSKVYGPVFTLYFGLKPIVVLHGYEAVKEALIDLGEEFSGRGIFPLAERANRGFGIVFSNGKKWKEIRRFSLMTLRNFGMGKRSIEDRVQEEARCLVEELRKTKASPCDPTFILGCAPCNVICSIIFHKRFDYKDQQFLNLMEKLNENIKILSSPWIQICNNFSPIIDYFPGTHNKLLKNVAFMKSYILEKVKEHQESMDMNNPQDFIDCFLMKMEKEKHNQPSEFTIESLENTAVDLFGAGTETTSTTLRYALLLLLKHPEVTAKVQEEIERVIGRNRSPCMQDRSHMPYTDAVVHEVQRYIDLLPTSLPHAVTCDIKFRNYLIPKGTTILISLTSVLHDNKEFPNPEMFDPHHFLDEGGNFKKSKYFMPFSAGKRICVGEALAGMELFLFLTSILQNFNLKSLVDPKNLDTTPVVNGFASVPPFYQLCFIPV
Cytochrome P450 2D6, sequence (P10635 whole entry): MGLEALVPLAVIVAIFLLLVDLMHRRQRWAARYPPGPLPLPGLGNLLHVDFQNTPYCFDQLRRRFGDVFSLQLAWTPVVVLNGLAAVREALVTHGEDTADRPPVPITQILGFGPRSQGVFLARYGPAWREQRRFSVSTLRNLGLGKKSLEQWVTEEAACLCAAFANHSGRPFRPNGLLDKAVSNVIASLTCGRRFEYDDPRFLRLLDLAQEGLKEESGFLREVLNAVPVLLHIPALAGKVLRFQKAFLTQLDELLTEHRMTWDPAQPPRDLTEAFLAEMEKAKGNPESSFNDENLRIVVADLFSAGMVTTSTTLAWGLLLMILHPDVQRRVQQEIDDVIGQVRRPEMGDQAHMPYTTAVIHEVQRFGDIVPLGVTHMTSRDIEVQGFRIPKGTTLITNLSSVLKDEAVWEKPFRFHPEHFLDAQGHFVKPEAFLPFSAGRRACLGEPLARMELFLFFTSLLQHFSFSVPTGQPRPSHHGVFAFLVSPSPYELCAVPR
T4 sequence (P11940 whole entry): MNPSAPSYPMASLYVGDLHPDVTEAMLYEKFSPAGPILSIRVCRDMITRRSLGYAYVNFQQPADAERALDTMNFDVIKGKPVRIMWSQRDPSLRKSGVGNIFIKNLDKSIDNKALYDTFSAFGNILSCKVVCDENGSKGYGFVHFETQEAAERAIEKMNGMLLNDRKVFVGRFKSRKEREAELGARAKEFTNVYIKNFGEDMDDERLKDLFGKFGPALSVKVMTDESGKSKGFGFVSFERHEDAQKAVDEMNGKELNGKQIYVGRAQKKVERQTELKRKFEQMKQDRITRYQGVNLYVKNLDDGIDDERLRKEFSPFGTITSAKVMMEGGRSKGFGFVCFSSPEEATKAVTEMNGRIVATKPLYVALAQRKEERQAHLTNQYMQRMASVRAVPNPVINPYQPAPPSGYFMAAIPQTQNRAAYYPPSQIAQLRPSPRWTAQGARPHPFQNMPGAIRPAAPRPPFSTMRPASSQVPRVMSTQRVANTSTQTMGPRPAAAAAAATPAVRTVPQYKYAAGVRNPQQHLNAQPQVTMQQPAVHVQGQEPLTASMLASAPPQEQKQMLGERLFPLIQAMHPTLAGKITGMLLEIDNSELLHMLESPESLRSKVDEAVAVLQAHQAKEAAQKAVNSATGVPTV

For C[C@@H](C(=O)O)/C(=C/c1ccc2c(c1)OCO2)C(=O)O, the AC50 (Cytochrome P450 3A4) was 6.31 µM (inconclusive) and the AC50 (Cytochrome P450 1A2) was 0.316 µM (inconclusive).
N[C@@H](Cc1cc(-c2ccc(Cl)cc2Cl)cc(CP(=O)(O)O)c1O)C(=O)O was tested, and the AC50 (Cytochrome P450 2C9) was 20 µM (inconclusive), the AC50 (Cytochrome P450 1A2) was 20 µM (inconclusive) and the AC50 (Cytochrome P450 2C19) was 7.94 µM (inconclusive).
With Cc1ccc(NC(=O)C(CC(C)C)NC(N)=O)cc1 (configuration not stated) the EC50 (Protein RecA) was > 380 µM (inactive) and the AC50 [1] was > 380 µM (inactive).
CC1Nc2ncnc(N3CCc4ccccc4C3)c2N(Cc2ccc(Br)cc2)C1=O (configuration not stated) was tested, and the EC50 (Protein RecA) was 23.7 µM (active) and the AC50 [1] was > 380 µM (inactive).
For Cc1ccccc1-c1nc(C[S+]([O-])CC(=O)NCCN2CCN(Cc3ccccc3)CC2)c(C)o1 (configuration not stated), the AC50 (Cytochrome P450 2C9) was 39.8 µM (inconclusive).
O=C(N/N=C/c1ccc(Cl)cc1)Nc1ccccc1 was tested, and the AC50 (Cytochrome P450 2C9) was 25.1 µM (inconclusive) and the AC50 (Cytochrome P450 3A4) was 12.6 µM (inconclusive).
With CCCCn1[nH]c(-c2ccccc2)cc1=O the EC50 (Protein RecA) was 1.05 µM (active) and the AC50 [1] was 2.96 µM (active).
COc1ccc(-c2nc(C(=O)N3CCN(C)CC3)sc2-c2ccc(OC)cc2)cc1 [FR-122047] was tested, and the AC50 (Cytochrome P450 2C9) was 20 µM (inconclusive), the AC50 (Cytochrome P450 3A4) was 7.94 µM (inconclusive) and the AC50 (Cytochrome P450 1A2) was 31.6 µM (inconclusive).
CCCN(CCC)C(=O)Cc1c(-c2ccc(Cl)cc2)nc2c(Cl)cc(Cl)cn12 [ALPDEM] was tested, and the AC50 (Cytochrome P450 3A4) was 0.794 µM (inconclusive).
In the case of COc1cccc(-c2cncnc2NCc2ccccc2)c1, the AC50 (Cytochrome P450 2C9) is reported as 0.158 µM (inconclusive) and the AC50 (Cytochrome P450 2D6) is reported as 39.8 µM (inconclusive).
With O=C(O)c1nn(-c2ccccc2)ccc1=O the AC50 (Cytochrome P450 2C9) was 0.398 µM (inconclusive).
In the case of COc1cc(Cc2nccc3cc(OC)c(OC)cc23)c(S(=O)(=O)O)cc1OC, the EC50 (Protein RecA) is reported as 85.7 µM (active) and the AC50 [1] is reported as 161 µM (active).
In the case of O=C(CN1C(=O)/C(=C/c2ccccc2Cl)SC1=S)NC1CCS(=O)(=O)C1 (configuration not stated), the IC50 [2] is reported as > 66 µM (inactive) and the IC50 [3] is reported as > 66 µM (inactive).
In the case of O=C(N/C(=C\c1cccs1)C(=O)N1CCCCCC1)c1ccccc1, the AC50 (Cytochrome P450 2C9) is reported as 31.6 µM (inconclusive) and the AC50 (Cytochrome P450 2C19) is reported as 5.01 µM (inconclusive).
With C=O.C[C@@H]1Cc2ccccc2N1NC(=O)c1ccc(Cl)c([S+](N)[O-])c1 (some centres not stated) the AC50 (Cytochrome P450 3A4) was 5.01 µM (inconclusive).
In the case of CC[C@]1(c2ncc[nH]2)Cc2ccccc2O1, the AC50 (Cytochrome P450 2C9) is reported as 25.1 µM (inconclusive) and the AC50 (Cytochrome P450 2D6) is reported as 10 µM (inconclusive).
In the case of O=S(=O)(NC(=S)NC1CCCCC1)c1ccccc1, the IC50 [2] is reported as > 66 µM (inactive) and the IC50 [3] is reported as > 66 µM (inactive).
O=C(NC(=S)Nc1cccc2cccnc12)c1ccccc1 was tested, and the IC50 [2] was > 66 µM (inactive) and the IC50 [3] was > 66 µM (inactive).
In the case of COc1ccc(-c2nc3cnc(Oc4ccccc4)nc3n(C3CC3)c2=O)cc1, the AC50 (Cytochrome P450 3A4) is reported as 15.8 µM (inconclusive).
O=c1cnc2cnc(Oc3cccc(Cl)c3)nc2n1Cc1ccc(F)cc1 was tested, and the AC50 (Cytochrome P450 3A4) was 25.1 µM (inconclusive).
In the case of Cc1n[nH]c(C)c1S(=O)(=O)N1CCOCC1, the AC50 (Cytochrome P450 2C9) is reported as 17.8 µM (inconclusive).
For O=C(CCc1nc(-c2ccccc2)c(-c2ccccc2)o1)OCc1ccc(Cl)cc1, the AC50 (Cytochrome P450 3A4) was 35.5 µM (inconclusive).
In the case of COc1ccccc1C1CC(c2cccs2)=Nc2ccccc2S1 (configuration not stated), the IC50 [2] is reported as > 66 µM (inactive) and the IC50 [3] is reported as > 66 µM (inactive).
In the case of CCc1noc(C)c1C(=O)N1CCN(S(=O)(=O)c2ccccc2C(F)(F)F)CC1, the IC50 [2] is reported as > 66 µM (inactive) and the IC50 [3] is reported as > 66 µM (inactive).
In the case of C/C(=N\NC(=O)c1cccc(Cl)c1)c1cccc(NC(=O)C(C)C)c1, the AC50 (Cytochrome P450 3A4) is reported as 15.8 µM (inconclusive) and the AC50 (Cytochrome P450 2D6) is reported as 28.2 µM (inconclusive).
In the case of Cc1ccc(OCC(=O)Nc2ccccc2-c2ccccc2)cc1, the AC50 (Cytochrome P450 2C9) is reported as 11.2 µM (inconclusive).
With COc1ccccc1CNc1nc(-c2c(C)noc2C)nc2ccccc12 the AC50 (Cytochrome P450 2C9) was 1 µM (inconclusive), the AC50 (Cytochrome P450 2D6) was 7.94 µM (inconclusive) and the AC50 (Cytochrome P450 2C19) was 1.58 µM (inconclusive).
COC(=O)CCC(NC(=O)OCc1ccccc1)C(=O)NC(CC(C)C)C(=O)OC (configuration not stated) (Cbz-Glu(OMe)-Leu-OMe; configuration not given here) was tested, and the AC50 (Cytochrome P450 3A4) was 14.1 µM (inconclusive).
C/C(=N/NC(=O)Cc1cc(O)[nH]n1)c1ccc([N+](=O)[O-])cc1 was tested, and the EC50 (Protein RecA) was 1.38 µM (active) and the AC50 [1] was 2.51 µM (active).
CC(=O)Nc1ccc(SCC(=O)NC(=O)c2ccc(S(=O)(=O)N(C)C)cc2)cc1 was tested, and the IC50 [2] was > 66 µM (inactive) and the IC50 [3] was > 66 µM (inactive).
Cc1ccc(S(=O)(=O)CCSc2cccc(C(=O)O)c2)cc1 was tested, and the IC50 [2] was > 66 µM (inactive) and the IC50 [3] was > 66 µM (inactive).
With Cc1nn(CC(=O)NCc2ccccc2Cl)c(C)c1[N+](=O)[O-] the AC50 (Cytochrome P450 2C9) was 12.6 µM (inconclusive), the AC50 (Cytochrome P450 3A4) was 14.1 µM (inconclusive) and the AC50 (Cytochrome P450 1A2) was 12.6 µM (inconclusive). For the same compound, the AC50 (Cytochrome P450 2D6) was 25.1 µM (inconclusive).
With CCC1NC(=S)N(C2CCCCC2)C1=O (configuration not stated) the AC50 (Cytochrome P450 2C9) was 15.8 µM (inconclusive) and the AC50 (Cytochrome P450 2C19) was 5.01 µM (inconclusive).
In the case of Cn1cc(-c2nc3cnc(N4CCOCC4)nc3n(CCC#N)c2=O)c2ccccc21, the AC50 (Cytochrome P450 3A4) is reported as 15.8 µM (inconclusive).
With CCOC(=O)C(CC)Sc1ncnc2c1nnn2-c1ccc(F)cc1 (configuration not stated) the EC50 (Protein RecA) was 26.7 µM (active) and the AC50 [1] was 0.908 µM (active).
O=C(COc1ccc(Br)cc1)NNC(=O)c1ccc(-n2cncn2)c([N+](=O)[O-])c1 was tested, and the IC50 [2] was > 66 µM (inactive) and the IC50 [3] was > 66 µM (inactive).
For O=C1C(Cl)=C(N2CCOCC2)C(=O)N1c1ccccc1F, the EC50 (Protein RecA) was 2.47 µM (active) and the AC50 [1] was 10.8 µM (active).
With Cc1cc(C)n2nc(SCc3cc(=O)oc4ccc5ccccc5c34)nc2n1 the IC50 [2] was > 66 µM (inactive) and the IC50 [3] was > 66 µM (inactive).
Cc1nc2ccccc2c2c1C(=O)NC2=O was tested, and the EC50 (Protein RecA) was 3.72 µM (active) and the AC50 [1] was 76.5 µM (active).
